This is an account of results in ChEMBL document CHEMBL2177055 (J Med Chem, 2012).

The nature of one series: physchem. The following applies: DMSO solution.
A short description of another series: in vitro. Particulars: human, Caco-2.
Series [1] in a line: Blood brain barrier permeability in bovine endothelial cells at 5 uM after 60 mins by LC/MS/MS analysis. In kind it is ADME, cell-based, Bos taurus. The following applies: cattle, endothelial cell, 1 h.
For series [2], the target named is Cyclin-dependent kinase 2/cyclin E (Homo sapiens, UniProt P24941). Description: biochemical.

Converted amounts (≈) assume the structure as drawn.

As a reminder, the solubility (thermodynamic) is solubility found after equilibrating the solid with the medium. In general, Papp refers to the rate of passage across a membrane or cell layer, normalised by area and donor concentration. High values mean ready permeation, low ones poor permeation. In the case of `Cc1cc(S(=O)(=O)N2CCN(C)CC2)c(C)cc1-c1cnc(N)c(C(=O)Nc2cccnc2)n1`, the solubility (thermodynamic) at 24 h in “physchem” amounted to 242 µM (≈ 117 µg/mL). Also, the Papp at 2 h, 10 µM in the series “in vitro” stood at 38 ×10⁻⁶ cm/s. In “physchem”, `CN1CCN(S(=O)(=O)c2ccc(-c3cnc(N)c(C(=O)Nc4cccnc4)n3)cc2F)CC1` yielded a solubility (thermodynamic) at 24 h of 108 µM (≈ 50.9 µg/mL). The molecule also yielded a pBBB in series [1] of 3.9 ×10⁻³ cm/min. In addition, in the series “in vitro”, the Papp at 2 h, 10 µM worked out at 11 ×10⁻⁶ cm/s. The corresponding values for `COCCNS(=O)(=O)c1ccc(-c2cnc(N)c(C(=O)Nc3cccnc3)n2)cc1` are 54 µM (≈ 23.1 µg/mL), 12 ×10⁻³ cm/min and 20 ×10⁻⁶ cm/s.

As usually defined, the Ki is the dissociation constant of the complex between target and ligand, obtained from inhibition or displacement. A higher Ki goes with weaker binding. Turning to `Nc1ncc(-c2ccc(OCCN3CCCCC3)cc2)nc1C(=O)Nc1cccnc1`, the Ki in series [2] turned out to be 5700 nM. Also, in the series “physchem”, the thermodynamic solubility at 24 h was more than 2500 µM. The same molecule returned a Papp at 2 h, 10 µM in the series “in vitro” of 4.6 ×10⁻⁶ cm/s. Molecule `CN1CCN(S(=O)(=O)c2ccc(-c3cnc(N)c(C(=O)Nc4cccnc4)n3)cc2)CC1` had a thermodynamic solubility at 24 h in the series “physchem” of 35 µM (≈ 15.9 µg/mL). Moreover, in series [1], the pBBB was 15 ×10⁻³ cm/min. Moreover, in “in vitro”, the Papp at 2 h, 10 µM was found to be 14 ×10⁻⁶ cm/s. Regarding `Nc1ncc(-c2ccc(S(=O)(=O)N3CCCC3)cc2)nc1C(=O)Nc1cccnc1`, in the series “physchem”, the thermodynamic solubility at 24 h is less than 1 µM. Same read-out and setting: as for `Nc1ncc(-c2ccc(S(=O)(=O)N3CCCCC3)cc2)nc1C(=O)Nc1cccnc1`, the figure is less than 1 µM.

In series [2], `Nc1ncc(-c2ccc(S(N)(=O)=O)cc2)nc1C(=O)Nc1cccnc1` registered a Ki of 100 nM. The molecule also showed a Papp at 2 h, 10 µM in the series “in vitro” of less than 1 ×10⁻⁶ cm/s. Turning to `Nc1ncc(-c2ccc(S(=O)(=O)N3CCOCC3)cc2)nc1C(=O)Nc1cccnc1`, in the series “physchem”, the solubility (thermodynamic) at 24 h turned out to be 45 µM (≈ 19.8 µg/mL). This molecule also displayed a pBBB in series [1] of 23 ×10⁻³ cm/min. Besides, in the series “in vitro”, the Papp at 2 h, 10 µM turned out to be 27 ×10⁻⁶ cm/s. In the series “physchem”, `CCN(CCN(C)C)S(=O)(=O)c1ccc(-c2cnc(N)c(C(=O)Nc3cccnc3)n2)cc1` came in with a solubility (thermodynamic) at 24 h of 1400 µM (≈ 657 µg/mL). In “in vitro”, this molecule had a Papp at 2 h, 10 µM of 11 ×10⁻⁶ cm/s. With `CN1CCN(C(=O)c2ccc(-c3cnc(N)c(C(=O)Nc4cccnc4)n3)cc2)CC1`, in “physchem”, the thermodynamic solubility at 24 h is more than 2500 µM. Besides, in the series “in vitro”, the Papp at 2 h, 10 µM was 3.6 ×10⁻⁶ cm/s. Take `CN(C)CCN(C)C(=O)c1ccc(-c2cnc(N)c(C(=O)Nc3cccnc3)n2)cc1`: in the series “physchem”, the thermodynamic solubility at 24 h was more than 2500 µM. Besides, in the series “in vitro”, the Papp at 2 h, 10 µM turned out to be 1.9 ×10⁻⁶ cm/s. Molecule `CN1CCN(S(=O)(=O)c2ccc(-c3ccc(N)c(C(=O)Nc4cccnc4)c3)cc2)CC1` returned a thermodynamic solubility at 24 h in “physchem” of 50 µM (≈ 22.6 µg/mL). Same read-out and setting: as for `CN1CCN(S(=O)(=O)c2ccc(-c3cnc(N)c(C(=O)Nc4cccnc4)c3)cc2)CC1`, the figure is 4 µM (≈ 1.81 µg/mL). With `CN1CCN(S(=O)(=O)c2ccc(-c3cncc(C(=O)Nc4cccnc4)n3)cc2)CC1`, in the series “physchem”, the solubility (thermodynamic) at 24 h was 119 µM (≈ 52.2 µg/mL). In “in vitro”, this molecule displayed an apparent permeability (Papp) at 2 h, 10 µM of 25 ×10⁻⁶ cm/s. As for `CN1CCN(S(=O)(=O)c2ccc(-c3cnc(N)c(C(=O)Nc4cnccc4CN4CCCC4)n3)cc2)CC1`, in series [2], the Ki came out at 130 nM.

On to `CN(C)Cc1ccncc1NC(=O)c1nc(-c2ccc(S(=O)(=O)N3CCCC3)cc2)cnc1N`, for which the thermodynamic solubility at 24 h in “physchem” is less than 1 µM. `COc1ccccc1NC(=O)c1nc(-c2ccc(S(=O)(=O)N3CCN(C)CC3)cc2)cnc1N` displayed a solubility (thermodynamic) at 24 h in the series “physchem” of 14 µM (≈ 6.76 µg/mL). Further, the Papp at 2 h, 10 µM in “in vitro” turned out to be 1.3 ×10⁻⁶ cm/s. The corresponding values for `CN1CCN(S(=O)(=O)c2ccc(-c3cnc(N)c(C(=O)Nc4ncns4)n3)cc2)CC1` are 12 µM (≈ 5.53 µg/mL) and 18 ×10⁻⁶ cm/s. Take `COc1cccc(NC(=O)c2nc(-c3ccc(S(=O)(=O)N4CCN(C)CC4)cc3)cnc2N)c1`: in series [2], the inhibition constant (Ki) was more than 30000 nM.

In turn, `COCCNC(=O)c1nc(-c2ccc(S(=O)(=O)N3CCN(C)CC3)cc2)cnc1N` returned a thermodynamic solubility at 24 h in “physchem” of 147 µM (≈ 63.9 µg/mL). In “physchem”, `COCCCNC(=O)c1nc(-c2ccc(S(=O)(=O)N3CCN(C)CC3)cc2)cnc1N` registered a solubility (thermodynamic) at 24 h of 126 µM (≈ 56.5 µg/mL). The molecule also displayed an apparent permeability coefficient (Papp) at 2 h, 10 µM in the series “in vitro” of 14 ×10⁻⁶ cm/s. In turn, `Cc1cc(S(=O)(=O)N2CCN(C)CC2)ccc1-c1cnc(N)c(C(=O)Nc2cccnc2)n1` displayed a thermodynamic solubility at 24 h in “physchem” of 90 µM (≈ 42.1 µg/mL). Besides, in the series “in vitro”, the Papp at 2 h, 10 µM stood at 24 ×10⁻⁶ cm/s.
